Assay results: article PMC6219560, “An Electroencephalography Bioassay for Preclinical Testing of Analgesic Efficacy” (Scientific Reports, 2018)
Like-named read-outs stand apart in the source and are kept apart here.

Tests used:
[1] = system: rat model of neuropathic pain (CCI); test: Thermal hyperalgesia: paw withdrawal latency (PWL) in rats with CCI; type: in vivo
From the text: (§1) The sciatic nerve was exposed unilaterally after skin incision at the mid-thigh level and blunt dissection of the biceps under deep anesthesia (isoflurane, 3%). Four chromic gut ligatures were tied loosely around the nerve 1 mm apart, and the overlying muscles and skin were closed in layers with 4–0 Ethilon sutures. A minor modification was introduced, consisting of loose ligatures, to minimize nerve damage and deafferentation. Rats with this slightly modified CCI procedure gradually develop typical signs of sensory hypersensitivity associated with neuropathic pain, such as guarding the affected hind paw and thermal hypersensitivity. […] For CCI sham surgery, the sciatic nerve was similarly exposed but not ligated.
EEG recording was performed first for ~10 min during resting states (no stimulation). The rat was then untethered from the EEG leads and placed in the behavioral apparatus for 15 min acclimation, followed by 5 min PWL testing. Thermal sensitivity of the hindpaw was assessed by measuring the latency of the withdrawal reflex in response to a radiant heat source (Paw withdrawal stimulator, Department of Anesthesiology, University of California, SD). A radiant heat source (4.7 A) was applied to the plantar surface of the hind paw. Paw withdrawal latencies (PWL) in response to 4 thermal stimulations were averaged for each paw. Stimulations to each paw were separated by at least 2 minutes intervals.
(§2) Values regarding theta power and PWL are reported as mean ± SEM and then converted to ratio relative to naive or CCI values for standardized representation of the data. One sample t-test was used for comparison between naïve and CCI, and paired t-test was used for comparison between CCI and after treatment in the same animals, respectively. Values regarding drug plasma concentration are reported as geomean (% of covariance) or range. Correlation analysis was used to compare EEG with PWL values. A P value < 0.05 was considered statistically significant and denoted by asterisk (*) in figures.

[2] = cited from earlier work
[3] = system: rat model of neuropathic pain (CCI); test: EEG theta power over primary somatosensory cortex in awake rats with CCI; type: in vivo; conditions: for Longitudinal effects on theta power and PWL: single dose 10 mg/kg, n=4
Method: These procedures were performed under anesthesia (isoflurane, 2–3.5%). The head was fixed in a stereotaxic apparatus, and skull was exposed after a small skin incision. A stainless steel screw electrode (0–80 ga 1/8 inch, impedance = 0.6 Ω; component Supply Company, Fort Meade, FL) was placed over intact skull (i.e. epicranially) corresponding to primary somatosensory cortex or S1 contralateral to nerve injury (Bregma −2, 2 mm lateral). Minimal craniotomies were used to place 3 stabilization screws (corresponding to Bregma +1.4, 2 mm bilaterally and Bregma −4.8 mm, midline). The EEG screw was threaded with a silver wire and attached to a female miniature pin connector (A&M Systems, Sequim, WA). All screws were anchored to the skull chronically using dental acrylic (Fig. 1B). Signal reference was provided by a silver wire permanently threaded to the skin at the back of the neck.
as §1, with “deafferentation.” for “deafferentation. Rats with this slightly modified CCI procedure gradually develop typical signs of sensory hypersensitivity associated with neuropathic pain, such as guarding the affected hind paw and thermal hypersensitivity.”
Pin connectors from EEG electrode was tethered to preamplifier headstage leading to a multichannel amplifier (iso-DAM8A; WPI Inc, Sarasota, FL). EEG waveforms were amplified (DAM80; World Precision Instruments, Sarasota, FL). […] Rats were allowed to move freely during EEG recording in Plexiglas chambers. After 15 minutes of acclimation, EEG recording was performed. Each EEG recording session was 3 to 5 minutes per animal. […] Only data during awake resting periods (defined as alertness but idle with no locomotor behavior) were further analyzed. Potentials generated due to vigorous myogenic activity (such as scratching) were excluded from analysis. These artifacts can be easily identified on the basis of monitoring the animal’s behavior, voltage amplitude, and spectral frequency typically >30 Hz, and they were further corroborated using an automated artifact detection algorithm recently developed in our laboratory (Supplemental Fig. 3)[59].
Fast Fourier transform was used to convert EEG waveform from the time domain to the frequency domain. Power values were generated in 27 frequency bins between 3 and 30 Hz. Awake resting periods were selected and Fast Fourier transformed, then average PSD was calculated. Mean PSD theta was computed between 4 and 8 Hz (Fig. 1C). Each ‘period’ was a continuous interval between 7 and 20 seconds, and 3–5 periods were averaged to obtain one value for mean theta per condition.
as §2

[4] = cited from earlier work; for Plasma concentration in rat: mean (% coefficient of variation) ref 29; for Plasma concentration in rat (% covariance): mean ref Lau et al.
[5] = Pharmacokinetics (PK) study: drug plasma concentration in rats by LC-MS/MS; type: in vivo, rat; conditions: for concentration at 30 min: geomean (% coefficient of variation), n = 3
Method: Rats (n = 3 per group) were intraperitoneally treated either with 3 or 100 mg/kg of pregabalin, or orally either with 1 or 10 mg/kg of EMA401, or 80 mg/kg of minocycline. At 0.5, 1, and 2 hours after treatment, approximately 150 µL of blood was collected from the jugular vein using a heparinized syringe with a needle. Blood samples were then centrifuged at 1700 g at 4 °C for 10 minutes. Plasma samples were then separated and stored at −20 °C until analysis. Five or 10 μL of plasma samples were diluted with 300 μL of deproteinization solution containing internal standards (5 nM buspirone, 20 nM tolbutamide, 10 nM reserpine in acetonitorile/methanol = 9: 1) and shaken for 5 minutes at room temperature, and centrifuged at 1000 g for 15 minutes. Then, the supernatant was analyzed by LC-MS/MS (Xevo TQ-S Tandem Quadrupole Mass Spectrometry, Waters) for quantification of pregabalin. Data analysis were performed with MassLynx Mass Spectometry Software and TargetLynx Application manager (Waters).

pain patients = conditions: equivalent human dose High (rat 30 mg/kg i.p.); cited from earlier work
rats with CCI = system: rats with CCI; set-up: method as in PMID 23489258; conditions: single doses (i.p.), rats with CCI ref 38; cited from earlier work
[6] = 80 mg/kg p.o., single administration at d14 after CCI, n = 5
[7] = 10 mg/kg p.o., single administration, d14 after CCI, 0.5 hr, n = 6

CN(C)c1ccc(O)c2c1C[C@H]1C[C@H]3[C@H](N(C)C)C(O)=C(C(N)=O)C(=O)[C@@]3(O)C(O)=C1C2=O [Minocycline, minocycline]
PWL relative to CCI ([1]; 80 mg/kg p.o. daily treatment starting d7 CCI, day 7): 0.91 ± 0.05
PWL relative to CCI ([1]; 80 mg/kg p.o. daily treatment starting d7 CCI, day 10): 1.00 ± 0.08
PWL relative to CCI ([1]; 80 mg/kg p.o. daily treatment starting d7 CCI, day 14): 0.94 ± 0.04
PWL relative to CCI [1, 6]: 1.08 ± 0.10
Corresponding plasma concentration in human: clinical dose ([2]; 200 mg/day, range ref Sumitani et al.): Therapeutic dose (inconclusive) Higher than clinical (200 mg/day) dose: 3.19–4.59 mg/mL*a [Sumitani et al.]
Theta power relative to CCI ([3]; 80 mg/kg p.o. daily starting d7 CCI, day 11, n = 7): 0.95 ± 0.11
Theta power relative to CCI ([3]; 80 mg/kg p.o. daily starting d7 CCI, day 14, n = 5): 1.37 ± 0.45
Theta power relative to CCI ([3]; 80 mg/kg p.o., d7 after CCI (first of daily doses), n = 7): 0.71 ± 0.06
Theta power relative to CCI [3, 6]: 0.96 ± 0.13

CC(C)C[C@H](CN)CC(=O)O [Pregabalin, pregabalin]
PWL relative to CCI ([1]; 3 mg/kg i.p., single dose, d14 after CCI, 0.5 h, mean ± SEM ratio): 1.42 ± 0.10
PWL relative to CCI ([1]; 10 mg/kg i.p., single dose, d14 after CCI, 0.5 h, mean ± SEM ratio): 1.54 ± 0.08
PWL relative to CCI ([1]; 30 mg/kg i.p., single dose, d14 after CCI, 0.5 h, mean ± SEM ratio): 1.47 ± 0.14
Plasma concentration in rat ([4]; 10 mg/kg i.p., 30 min): 11.3 (4.9) μg/mL
Plasma concentration in rat (% covariance) ([4]; 10 mg/kg, observation time 30 min): 11.3 (4.9)*b mg/mL
Plasma concentration in rat ([4]; 30 mg/kg i.p.): 33.0 (5.4) μg/mL
Plasma concentration in rat (% covariance) ([4]; 30 mg/kg): 33.0 (5.4)*b mg/mL
Cmax in humans ([2]; 150 mg/day ref 31): 3.18 (21) μg/mL
Corresponding plasma concentration in human: Cmax ([2]; 150 mg/day ref Chew et al.): Sub-therapeutic dose Similar to Cmax of 150 mg/day: 3.18 (21) mg/mL [Chew et al.]
Cmax in humans ([2]; 300 mg/day ref 31): 6.39 (20) μg/mL
Cmax in humans ([2]; 600 mg/day ref 31): 11.4 (17) μg/mL
Corresponding plasma concentration in human: steady state level ([2]; 600 mg/day, range ref Dworkin et al.): Supra-therapeutic dose Slightly higher than steady state level of 600 mg/day: 0.244–18.6 mg/mL*a [Dworkin et al.]
Steady state level in humans ([2]; 600 mg/day, represented as range ref 33): 0.244 to 18.6 µg/mL
Linearity of plasma concentration at 30 min ([5]; doses of 3 and 100 mg/kg i.p., compared with previous report (10 and 30 mg/kg)): good linearity
concentration at 30 min ([5]; rat, in vivo, 3 mg/kg i.p.): 3.29 µg/mL
concentration at 30 min ([5]; rat, in vivo, 100 mg/kg i.p.): 99.3 µg/mL
Clinical efficacy (VAS) (pain patients): Side effects
Theta power relative to CCI ([3]; 3 mg/kg i.p., single dose, d14 after CCI, 0.5 h, mean ± SEM ratio, n = 7): 0.91 ± 0.11
Theta power relative to CCI ([3]; 10 mg/kg i.p., single dose, d14 after CCI, 0.5 h, mean ± SEM ratio, n = 7): 0.83 ± 0.12
EEG efficacy (θ power) ([3]; 30 mg/kg (i.p.), pain phase Late): Side effects
Theta power relative to CCI ([3]; 30 mg/kg i.p., single dose, d14 after CCI, 0.5 h, mean ± SEM ratio, n = 7): 1.24 ± 0.29

Cc1cc(Cn2cnc3c2CC(C(=O)O)N(C(=O)C(c2ccccc2)c2ccccc2)C3)ccc1N(C)C (stereo not shown) [EMA200]
Anti-allodynic effects (rats with CCI): dose-dependent anti-allodynic effects

COc1ccc2c(c1OCc1ccccc1)C[C@@H](C(=O)O)N(C(=O)C(c1ccccc1)c1ccccc1)C2 [EMA401]
PWL relative to CCI ([1]; 10 mg/kg p.o. daily starting d7 after CCI, day 7): 1.60 ± 0.19
PWL relative to CCI ([1]; 10 mg/kg p.o. daily starting d7 after CCI, day 11): 2.13 ± 0.28
PWL relative to CCI ([1]; 10 mg/kg p.o. daily starting d7 after CCI, day 14): 2.27 ± 0.30
PWL relative to CCI [1, 7]: 1.26 ± 0.11
Corresponding plasma concentration in human: Cmax ([2]; 200 mg/day, mean (% covariance) ref Rice et al.): Therapeutic dose Similar to Cmax of 200 mg/day: 1.01 (65) mg/mL*b [Rice et al.]
Plasma concentration, clinical data ([2]; human ref 18): 1.01 (65) μg/mL
Distribution ([5]; rat, in vivo): peripherally restricted
Exposure after daily administration ([5]; rat, in vivo, po): not cumulative
Theta power relative to CCI ([3]; 10 mg/kg p.o. daily starting d7 after CCI, day 7, n = 6): 0.76 ± 0.07
Theta power relative to CCI ([3]; 10 mg/kg p.o. daily starting d7 after CCI, day 11, n = 6): 0.77 ± 0.08
Theta power relative to CCI ([3]; 10 mg/kg p.o. daily starting d7 after CCI, day 14, n = 6): 0.87 ± 0.12
Theta power relative to CCI [3, 7]: 0.71 ± 0.13
Longitudinal effects on theta power and PWL ([3]; CCI d7, 30 min after administration): analgesic effects
Longitudinal effects on theta power and PWL ([3]; CCI d7, 2 hours after administration): tendency for reversal

COc1ccc2c(c1OCc1ccccc1)C[C@@H](C(=O)O)N(C(=O)C(c1ccccc1)c1ccccc1)C2 [EMA400]
Anti-allodynic effects (rats with CCI): dose-dependent anti-allodynic effects
